{
  "source": "ChEMBL document CHEMBL1201862",
  "about": "“PubChem BioAssay data set” (2004)",
  "key": {"[1]": {"molecular_target": "T1, Polyadenylate-binding protein 1 (Homo sapiens, UniProt P11940)", "T1 sequence (P11940 whole entry)": "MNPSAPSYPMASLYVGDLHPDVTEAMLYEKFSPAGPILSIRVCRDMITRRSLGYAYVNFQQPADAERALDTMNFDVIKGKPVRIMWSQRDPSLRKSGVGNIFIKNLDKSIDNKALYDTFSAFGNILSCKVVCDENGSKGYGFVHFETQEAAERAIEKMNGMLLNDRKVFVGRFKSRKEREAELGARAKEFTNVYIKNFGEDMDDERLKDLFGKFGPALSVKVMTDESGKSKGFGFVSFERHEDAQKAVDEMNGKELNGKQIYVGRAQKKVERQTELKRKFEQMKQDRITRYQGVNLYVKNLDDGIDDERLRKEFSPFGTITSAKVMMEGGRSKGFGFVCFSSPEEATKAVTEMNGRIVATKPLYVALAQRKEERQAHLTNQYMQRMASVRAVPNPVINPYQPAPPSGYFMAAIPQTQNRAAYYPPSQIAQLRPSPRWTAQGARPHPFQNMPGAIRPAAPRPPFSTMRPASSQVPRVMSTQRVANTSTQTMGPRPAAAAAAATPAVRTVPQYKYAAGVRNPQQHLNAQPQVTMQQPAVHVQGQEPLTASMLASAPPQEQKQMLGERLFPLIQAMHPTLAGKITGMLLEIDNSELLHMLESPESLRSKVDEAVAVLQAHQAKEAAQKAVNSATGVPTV", "assay": "MLLE binding blockers, Cy5 peptide tracer – biochemical, fluorescence polarization, Cy5-PAM2 peptide, secondary, miRNA deadenylation inhibitor project, dose response (AID 602260)", "type": "functional", "settings": "read-out: IC50_Mean"}, "HEK293": {"test_system": "HEK293", "assay": "EBV LMP1 TES2 canonical NF-kB signalling blockers – cell-based, HEK293, luciferase, cherry-pick, dose response (AID 588343)", "type": "functional", "settings": "Homo sapiens"}, "[2]": {"assay": "blockers of bursicon-stimulated LGR2 cAMP reporter – cell-based, HEK293, CRE-luciferase reporter, cherry pick, set 2, dose response (AID 743343);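 also: transfected cells were stimulated with diluted bursicon conditioned medium after compound addition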", "type": "functional"}, "[3]": {"assay": "blockade of melanocortin 4 receptor signaling – cell-based, plate reader, cherry pick, counter-screen for LGR2 antagonist project, dose response (AID 743444);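 also: transfected HEK 293 cells stimulated with alpha-MSH peptide; potency of inhibitors of the alpha-MSH evoked signal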", "type": "functional"}, "[4]": {"assay": "toxicity toward HepG2 liver cells – cell-based, plate reader, cherry-pick, antagonist series, cytotoxicity control, dose response (AID 743416)", "type": "functional"}, "[5]": {"molecular_target": "T1, Polyadenylate-binding protein 1", "assay": "MLLE domain peptide-binding blockers, IC50 – biochemical, fluorescence polarization, FITC-PAM2 peptide, dose response (AID 602259)", "type": "functional", "settings": "read-out: IC50_Mean"}, "[6]": {"assay": "Luminescence Cell-Based Dose Retest to Confirm Inhibitors of Cancer Stem Cells. [Related pubchem assays (depositor defined):AID2717, AID2721]", "type": "functional", "settings": "Homo sapiens"}, "Melanocortin receptor 4": {"molecular_target": "Melanocortin receptor 4 (Homo sapiens, UniProt P32245)", "sequence (P32245 whole entry)": "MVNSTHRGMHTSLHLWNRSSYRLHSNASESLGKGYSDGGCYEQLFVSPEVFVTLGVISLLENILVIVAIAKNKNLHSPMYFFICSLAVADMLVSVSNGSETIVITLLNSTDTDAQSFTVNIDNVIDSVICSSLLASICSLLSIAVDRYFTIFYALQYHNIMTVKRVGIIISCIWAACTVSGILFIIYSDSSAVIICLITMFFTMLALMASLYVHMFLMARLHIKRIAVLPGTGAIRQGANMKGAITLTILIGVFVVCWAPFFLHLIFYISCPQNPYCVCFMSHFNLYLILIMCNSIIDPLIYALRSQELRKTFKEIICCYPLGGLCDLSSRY", "type": "functional, cell-based"}, "[7]": {"assay": "fluconazole-exposed Candida albicans growth modulators – fluorescence, retest, confirmation (AID 2467)", "type": "functional, cell-based"}, "Streptococcus": {"test_system": "Streptococcus", "assay": "GAS UMAA2166 growth inhibition – luminescence, BacTiterGlo, counter-screen for streptokinase expression inhibitor project, dose response (AID 1915);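 also: potency for reduction of bacterial viability or growth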", "type": "functional, organism-based"}, "[8]": {"assay": "NIH-3T3 fibroblast cytotoxicity, dose response, cytotoxicity control, cell-based, fluorescence, Alamar Blue, secondary assay (AID 2327);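 also: NIH-3T3 mouse fibroblasts cultured with fluconazole at 8 µg/mL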", "type": "functional"}, "[9]": {"molecular_target": "ATP-dependent molecular chaperone HSP82 (Candida albicans (strain WO-1) (Yeast), UniProt C4YTQ8)", "sequence (C4YTQ8 whole entry)": "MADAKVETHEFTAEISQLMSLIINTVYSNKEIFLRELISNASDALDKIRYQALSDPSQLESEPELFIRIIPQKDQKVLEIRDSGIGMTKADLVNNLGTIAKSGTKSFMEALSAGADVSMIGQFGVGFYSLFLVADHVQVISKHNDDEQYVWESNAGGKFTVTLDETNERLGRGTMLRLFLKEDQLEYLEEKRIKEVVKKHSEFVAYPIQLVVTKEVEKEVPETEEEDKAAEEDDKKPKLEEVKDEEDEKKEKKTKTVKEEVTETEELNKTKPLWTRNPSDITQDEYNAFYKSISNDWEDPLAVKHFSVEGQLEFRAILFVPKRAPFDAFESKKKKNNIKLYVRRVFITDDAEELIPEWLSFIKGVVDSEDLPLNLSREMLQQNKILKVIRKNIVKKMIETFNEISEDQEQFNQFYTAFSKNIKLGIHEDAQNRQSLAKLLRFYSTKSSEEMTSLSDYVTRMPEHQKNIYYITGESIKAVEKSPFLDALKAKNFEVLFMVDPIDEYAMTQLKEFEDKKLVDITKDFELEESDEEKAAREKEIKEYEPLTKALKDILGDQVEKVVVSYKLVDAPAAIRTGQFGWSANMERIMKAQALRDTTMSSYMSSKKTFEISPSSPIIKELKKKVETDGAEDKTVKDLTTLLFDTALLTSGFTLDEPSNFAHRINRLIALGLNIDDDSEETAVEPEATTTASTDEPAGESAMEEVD", "assay": "steroid-induced GRE reporter decrease in yeast – S. cerevisiae, luminescence, Hsp90 inhibitor project, dose response (AID 2400);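 also: beta-galactosidase luminescence from glucocorticoid response element reporter as proxy for Hsp90 function; inhibitor potency where signal loss means Hsp90 inhibition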", "type": "functional, cell-based"}, "Streptokinase A": {"molecular_target": "T2, Streptokinase A (Streptococcus pyogenes serotype M1, UniProt P10520)", "T2 sequence (P10520 whole entry)": "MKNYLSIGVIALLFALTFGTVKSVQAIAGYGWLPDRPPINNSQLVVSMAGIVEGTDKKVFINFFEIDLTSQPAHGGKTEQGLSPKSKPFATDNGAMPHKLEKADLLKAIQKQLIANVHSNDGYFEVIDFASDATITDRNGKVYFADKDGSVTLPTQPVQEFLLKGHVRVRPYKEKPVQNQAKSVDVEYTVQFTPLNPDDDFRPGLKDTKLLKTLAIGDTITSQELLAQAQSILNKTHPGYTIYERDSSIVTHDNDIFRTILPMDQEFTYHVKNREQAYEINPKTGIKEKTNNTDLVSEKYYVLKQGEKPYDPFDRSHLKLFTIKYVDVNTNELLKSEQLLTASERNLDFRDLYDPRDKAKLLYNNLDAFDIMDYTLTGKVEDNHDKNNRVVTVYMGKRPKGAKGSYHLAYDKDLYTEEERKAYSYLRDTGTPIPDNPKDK", "assay": "viability-normalized secreted streptokinase activity reduction – plasminogen activation absorbance, OD405, dose response (AID 1914);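 also: secreted streptokinase activity via plasminogen activation per viability signal from cell pellet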", "type": "functional, Streptococcus pyogenes M1 GAS"}, "[10]": {"assay": "microbe, parasite or virus in culture", "type": "functional", "settings": "Mycobacterium tuberculosis"}, "[11]": {"molecular_target": "T3, Serine/threonine-protein phosphatase (Candida dubliniensis (strain CD36 / CBS 7987 / NCPF 3949 / NRRLY-17841) (Yeast), UniProt B9W6M3)", "T3 sequence (B9W6M3 whole entry)": "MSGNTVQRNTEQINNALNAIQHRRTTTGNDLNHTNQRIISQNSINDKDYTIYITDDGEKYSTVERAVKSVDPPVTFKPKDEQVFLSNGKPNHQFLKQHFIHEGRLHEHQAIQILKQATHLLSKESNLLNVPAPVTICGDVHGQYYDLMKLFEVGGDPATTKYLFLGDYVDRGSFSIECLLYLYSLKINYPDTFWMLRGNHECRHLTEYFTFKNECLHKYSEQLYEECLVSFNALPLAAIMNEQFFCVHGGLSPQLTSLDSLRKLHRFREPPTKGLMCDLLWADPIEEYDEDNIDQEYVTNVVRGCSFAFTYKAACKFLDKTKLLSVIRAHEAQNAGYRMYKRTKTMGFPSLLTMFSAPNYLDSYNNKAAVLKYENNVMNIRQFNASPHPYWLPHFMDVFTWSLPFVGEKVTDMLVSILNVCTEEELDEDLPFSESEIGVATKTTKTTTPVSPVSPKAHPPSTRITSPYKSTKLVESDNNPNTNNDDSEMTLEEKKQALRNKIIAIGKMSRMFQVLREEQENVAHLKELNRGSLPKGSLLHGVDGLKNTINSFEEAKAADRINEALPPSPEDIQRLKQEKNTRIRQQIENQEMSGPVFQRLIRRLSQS", "assay": "blockers of CaCl2-induced CDRE-lacZ signaling – S. cerevisiae, luminescence, secondary, dose response (AID 2388);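 also: yeast reporter cells carrying a calcineurin-responsive lacZ construct stimulated with calcium chloride; luminescent beta-galactosidase reporter signal in whole cells rather than isolated phosphatase activity; potency for inhibition where a drop in reporter signal means calcineurin blockade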", "type": "functional, cell-based"}, "[12]": {"test_system": "Streptococcus sp. 'group A'", "assay": "Streptococcus pyogenes SK(-)GAS viability under kanamycin – luminescence, BacTiterGlo, confirmation, counter-screen for streptokinase expression inhibitor project, dose response (AID 1900)", "type": "functional, organism-based"}, "Protein skinhead-1": {"molecular_target": "T4, Protein skinhead-1 (Caenorhabditis elegans, UniProt P34707)", "T4 sequence (P34707 whole entry)": "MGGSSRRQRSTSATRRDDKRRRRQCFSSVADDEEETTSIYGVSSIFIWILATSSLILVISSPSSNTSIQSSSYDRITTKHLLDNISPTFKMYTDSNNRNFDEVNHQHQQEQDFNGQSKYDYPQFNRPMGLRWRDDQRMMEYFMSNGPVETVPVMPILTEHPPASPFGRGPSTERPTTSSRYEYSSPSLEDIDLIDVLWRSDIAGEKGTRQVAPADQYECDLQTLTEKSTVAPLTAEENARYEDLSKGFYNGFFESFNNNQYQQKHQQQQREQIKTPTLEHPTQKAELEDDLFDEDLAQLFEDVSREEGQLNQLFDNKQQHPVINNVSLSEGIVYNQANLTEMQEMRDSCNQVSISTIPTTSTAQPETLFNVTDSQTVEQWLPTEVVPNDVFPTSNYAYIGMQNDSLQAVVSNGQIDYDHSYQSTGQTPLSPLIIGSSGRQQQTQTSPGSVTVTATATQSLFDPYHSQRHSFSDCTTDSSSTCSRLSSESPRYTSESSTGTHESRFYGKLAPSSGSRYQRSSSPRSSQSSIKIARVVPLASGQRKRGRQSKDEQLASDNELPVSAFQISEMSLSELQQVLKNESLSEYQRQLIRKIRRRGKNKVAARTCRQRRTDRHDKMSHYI", "type": "functional"}, "Protein Wnt-3a": {"molecular_target": "Protein Wnt-3a (Mus musculus, UniProt P27467)", "sequence (P27467 whole entry)": "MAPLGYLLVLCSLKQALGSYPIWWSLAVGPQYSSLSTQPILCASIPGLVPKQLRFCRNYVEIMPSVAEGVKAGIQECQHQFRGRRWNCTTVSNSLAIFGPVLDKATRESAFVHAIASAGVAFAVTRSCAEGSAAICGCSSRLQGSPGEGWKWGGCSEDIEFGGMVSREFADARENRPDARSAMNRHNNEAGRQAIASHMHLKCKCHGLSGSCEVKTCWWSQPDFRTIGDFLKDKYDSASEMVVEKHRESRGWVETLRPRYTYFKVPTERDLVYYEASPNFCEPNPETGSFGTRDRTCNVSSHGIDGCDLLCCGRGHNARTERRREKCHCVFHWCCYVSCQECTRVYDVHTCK", "assay": "antagonism of Wnt3a pathway luciferase reporter – Wnt-LIGHT cells, luminescence, selectivity assay for Gli-SUFU antagonist project, dose response (AID 651570);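 also: Wnt-LIGHT reporter cells stimulated with conditioned medium from Wnt3a-producing cells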", "type": "functional", "settings": "read-out: IC50_Mean"}, "Vero": {"test_system": "Vero", "assay": "viability of Vero cells under compound – cytotoxicity control for flavivirus capping enzyme inhibitors (AID 588742)", "type": "functional", "settings": "Chlorocebus sabaeus"}, "[13]": {"molecular_target": "26S proteasome non-ATPase regulatory subunit 14 (Homo sapiens, UniProt O00487)", "sequence (O00487 whole entry)": "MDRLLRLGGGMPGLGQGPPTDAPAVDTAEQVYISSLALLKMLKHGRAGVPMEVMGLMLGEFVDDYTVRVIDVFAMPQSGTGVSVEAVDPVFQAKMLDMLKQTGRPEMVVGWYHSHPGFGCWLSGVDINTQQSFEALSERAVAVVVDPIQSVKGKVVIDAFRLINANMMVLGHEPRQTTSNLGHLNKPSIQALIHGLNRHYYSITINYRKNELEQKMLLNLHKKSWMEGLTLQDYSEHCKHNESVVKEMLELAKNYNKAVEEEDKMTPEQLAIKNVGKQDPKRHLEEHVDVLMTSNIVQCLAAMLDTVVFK", "assay": "inhibition of proteasome subunit RPN11 – biochemical, fluorescence polarization, uHTS hits, confirmation (AID 602368)", "type": "functional"}, "Prothrombin": {"molecular_target": "Prothrombin (Bos taurus, UniProt P00735)", "assay": "thrombin protease inhibitors – biochemical, fluorescence polarization, uHTS hits, dose response (AID 602369)", "type": "functional"}, "[14]": {"molecular_target": "72 kDa type IV collagenase (Homo sapiens, UniProt P08253)", "sequence (P08253 whole entry)": "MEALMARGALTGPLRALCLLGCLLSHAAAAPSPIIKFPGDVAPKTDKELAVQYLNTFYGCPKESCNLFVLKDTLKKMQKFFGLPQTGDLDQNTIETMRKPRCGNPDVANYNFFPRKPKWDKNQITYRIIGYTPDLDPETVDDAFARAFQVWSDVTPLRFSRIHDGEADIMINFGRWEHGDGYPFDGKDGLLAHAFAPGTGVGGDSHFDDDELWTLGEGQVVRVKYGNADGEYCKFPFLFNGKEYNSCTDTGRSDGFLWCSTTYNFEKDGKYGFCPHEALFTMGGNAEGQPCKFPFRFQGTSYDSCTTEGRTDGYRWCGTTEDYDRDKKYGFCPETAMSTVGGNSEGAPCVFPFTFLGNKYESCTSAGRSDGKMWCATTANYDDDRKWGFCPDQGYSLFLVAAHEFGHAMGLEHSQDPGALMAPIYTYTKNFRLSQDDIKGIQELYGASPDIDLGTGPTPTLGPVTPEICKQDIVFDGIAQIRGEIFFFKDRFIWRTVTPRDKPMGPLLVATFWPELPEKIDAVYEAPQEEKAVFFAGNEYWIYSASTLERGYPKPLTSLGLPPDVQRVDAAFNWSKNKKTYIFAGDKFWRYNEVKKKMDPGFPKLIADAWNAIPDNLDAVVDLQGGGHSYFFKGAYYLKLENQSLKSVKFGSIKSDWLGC", "assay": "Dose Response validation of uHTS RPN11 inhibitor hits using a MMP-2 Fluorescence assay.", "type": "functional"}, "[15]": {"molecular_target": "T5, Endoribonuclease toxin MazF (Escherichia coli K-12, UniProt P0AE70)", "T5 sequence (P0AE70 whole entry)": "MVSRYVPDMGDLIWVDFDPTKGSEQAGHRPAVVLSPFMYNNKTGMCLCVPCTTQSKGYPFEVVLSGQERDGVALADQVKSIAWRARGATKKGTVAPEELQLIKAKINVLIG", "assay": "substrate-only fluorescence increase artefacts – biochemical, single-stranded RNase substrate, counter-screen for MazEF activator project, dose response (AID 588502)", "type": "functional"}, "[16]": {"molecular_target": "T5, Endoribonuclease toxin MazF", "assay": "activation of MazEF endoribonuclease cleavage – biochemical, fluorescence, single-stranded RNA substrate, uHTS hits, dose response (AID 588481)", "type": "functional"}},
  "note": "Activity calls are given as the source filed them.",
  "data": [
    {"smiles": "O=C(CN1C(=O)c2ccccc2S1(=O)=O)Nc1ncc(Cl)cc1Cl", "values": [
      {"measurement": "IC50", "setting": "[1]", "value": "> 66 µM (inactive)"},
      {"measurement": "AC50", "setting": "HEK293", "value": "3.85 µM (active)"},
      {"measurement": "AC50", "setting": "[2]", "value": "8.67 µM (active)"},
      {"measurement": "AC50", "setting": "[3]", "value": "9.06 µM (active)"},
      {"measurement": "AC50", "setting": "[4]", "value": "> 52 µM (inactive)"},
      {"measurement": "IC50", "setting": "[5]", "value": "27.3 µM (inactive)"}
    ]},
    {"smiles": "O=C(Nc1nc2ccc(SC(F)F)cc2s1)c1ccc(NS(=O)(=O)c2ccc(F)c(F)c2)cc1", "values": [
      {"measurement": "AC50", "setting": "[6]", "value": "2.45 µM (active)"},
      {"measurement": "EC50", "setting": "Melanocortin receptor 4", "value": "> 89.2 µM (inactive)"},
      {"measurement": "EC50", "setting": "[7]", "value": "2.18 µM (active)"},
      {"measurement": "EC50", "setting": "Streptococcus", "value": "2.79 µM (active)"},
      {"measurement": "EC50", "setting": "[8]", "value": "92.6 µM (active)"},
      {"measurement": "EC50", "setting": "[9]", "value": "> 150 µM (inactive)"},
      {"measurement": "EC50", "setting": "Streptokinase A", "value": "> 50 µM (not active)"},
      {"measurement": "CC50", "setting": "[10]", "value": "20.1 µM (active)"},
      {"measurement": "EC50", "setting": "[11]", "value": "> 180 µM (inactive)"},
      {"measurement": "EC50", "setting": "[12]", "value": "2.68 µM (active)"}
    ]},
    {"smiles": "CC(=O)Nc1cccc(OCC(=O)/C=C2\\N(C)c3ccccc3C2(C)C)c1", "values": [
      {"measurement": "IC50", "setting": "Protein skinhead-1", "value": "> 100 µM (inactive)"},
      {"measurement": "IC50", "setting": "Protein Wnt-3a", "value": "50 µM (inactive)"}
    ]},
    {"smiles": "CCn1c(=O)c(C(=O)CN2CCc3ccccc32)c(N)n(Cc2ccccc2)c1=O", "values": [
      {"measurement": "CC50", "setting": "Vero", "value": "> 40 µM (active)"}
    ]},
    {"smiles": "Cc1ccc(NC2=NC(=O)/C(=C/c3cccs3)S2)cc1C", "values": [
      {"measurement": "IC50", "setting": "[13]", "value": "25.9 µM (active)"},
      {"measurement": "IC50", "setting": "Prothrombin", "value": "37.8 µM (active)"},
      {"measurement": "IC50", "setting": "[14]", "value": "> 100 µM (inactive)"}
    ]},
    {"smiles": "COc1cccc(-c2cc(C(=O)N3CCc4ccccc4C3)[nH]n2)c1", "values": [
      {"measurement": "EC50", "setting": "[15]", "value": "> 99 µM (inactive)"},
      {"measurement": "EC50", "setting": "[16]", "value": "> 99 µM (inactive)"}
    ]}
  ]
}
